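Method: 48-hour compound exposure of cells in 96-well plates, five concentrations, linear interpolation of endpoints. GI50 = concentration required for 50% inhibition of growth. The concentration for full growth arrest is given as TGI.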
Assays:
Assay in all cases: NCI tumour cell line growth inhibition, 48 h
HCC-2998 colon = system: HCC-2998 colon
HCT-15 colon = system: HCT-15 colon
HL-60(TB) leukemia = system: HL-60(TB) leukemia
HOP-92 NSCLC = system: HOP-92 NSCLC
MOLT-4 leukemia = system: MOLT-4 leukemia
NCI-H23 lung = system: NCI-H23 lung
OVCAR-3 ovarian = system: OVCAR-3 ovarian
OVCAR-5 ovarian = system: OVCAR-5 ovarian
SK-MEL-28 melanoma = system: SK-MEL-28 melanoma
T-47D breast = system: T-47D breast

Compound | GI50 (HCC-2998 colon) [µM] | TGI (HCC-2998 colon) [µM] | GI50 (HCT-15 colon) [µM] | TGI (HCT-15 colon) [µM] | GI50 (HL-60(TB) leukemia) [µM] | TGI (HL-60(TB) leukemia) [µM] | GI50 (HOP-92 NSCLC) [µM] | TGI (HOP-92 NSCLC) [µM] | GI50 (MOLT-4 leukemia) [µM] | TGI (MOLT-4 leukemia) [µM] | GI50 (NCI-H23 lung) [µM] | TGI (NCI-H23 lung) [µM] | GI50 (OVCAR-3 ovarian) [µM] | TGI (OVCAR-3 ovarian) [µM] | GI50 (OVCAR-5 ovarian) [µM] | TGI (OVCAR-5 ovarian) [µM] | GI50 (SK-MEL-28 melanoma) [µM] | TGI (SK-MEL-28 melanoma) [µM] | GI50 (T-47D breast) [µM] | TGI (T-47D breast) [µM]
O=C(Cc1ccc(/C=C/C(=O)c2ncc[nH]2)cc1)Nc1ccc(F)cc1 | 5.43 | 10.9 | 1.15 | 7.37 | 1.66 | 10.6 | 9.11 | 30.5 | 5.74 | > 33.3 | 1.91 | 9.54 | 1.7 | 6.01 | 2.6 | 9.81 | 6.26 | 16.6 | 3.33 | 24.6
CC(C)(CN1CCCCC1)C(=O)/C=C/c1ccc(/C=C/C(=O)C(C)(C)CN2CCCCC2)cc1 |  | 1.07 |  | 0.703 |  | 0.714 |  | 1.58 |  | 0.33 |  | 2.04 |  | 1.17 |  | 1.57 |  | 2.65 |  | 1.65
CC(N)C(Cc1ccc(Cl)cc1)c1ccc(Cl)cc1 (stereo not given) | 1.96 | 4.11 | 4.15 | 17.5 | 10.6 | 26.1 | 5.59 | 19.9 | 13.6 | 31.4 | 13.4 | 27.8 | 13.8 | 27.5 | 12.4 | 27.3 | 3.86 | 15.9 | 10.7 | 26
Cc1cccc(N(C)C(=O)[C@@H]2[C@H](O)CCN2c2nc(C)cc(C(F)(F)F)c2C#N)c1 | 22.7 | 88.1 | 27.9 | > 100 | 3.56 | 17.4 | 11 | 53.1 | 1.98 | 53.8 | 31.2 | > 100 | 15.2 | 81.3 | 25.4 | 98.2 | 24.3 | > 100 | 23.2 | > 100
CCN(CC)c1ccc(/C=N/NC(=O)CSc2nc3ccccc3c(=O)n2CCc2ccc(S(N)(=O)=O)cc2)c(O)c1 | 2.49 | > 100 | 2.82 | > 100 | 1.71 | 6.44 | 2.15 | 75.2 | 0.653 | > 100 | 2.99 | > 100 | 0.296 | > 100 | 4.4 | > 100 | 2.69 | > 100 | 1.01 | > 100
c1ccc([P+](CCSCCSCC[P+](c2ccccc2)(c2ccccc2)c2ccccc2)(c2ccccc2)c2ccccc2)cc1 |  | > 100 |  | > 100 |  | > 100 |  | > 100 |  | > 100 |  | > 100 |  | > 100 |  | > 100 |  | > 100 |  | > 100
COc1ccc2c(c1)/C(=C\c1c(-c3cc(OC)ccc3OC)nc3sc(C)cn13)C(=O)N2C | 59.7 | > 100 | 33.9 | > 100 | 18.3 | 41.4 | 4.33 | 37.6 | 14.1 | 51.8 | 38.5 | > 100 | 15.6 | 54.5 | 55.7 | > 100 | 16 | 32.3 | 29.7 | > 100
Cc1nc([P+](c2ccccc2)(c2ccccc2)c2ccccc2)c(Sc2sc(-c3ccccc3)nc2[P+](c2ccccc2)(c2ccccc2)c2ccccc2)o1 | 2 | 6.22 | 2.15 | 7.68 | 1.39 | 4 | 0.759 | 3.73 | 1.8 | 6.15 | 1.99 | 5.92 | 0.76 | 3.29 | 2.29 | 8.53 | 1.99 | 10.5 | 0.327 | 8.81
O=C(Oc1cccc2cccnc12)c1cc2c(cc1Cl)SC(N(c1ccc(F)cc1)S(=O)(=O)c1ccc(Br)s1)=NS2(=O)=O | 43.5 | > 100 | 25.9 | > 100 | 26.4 | > 100 | 22.5 | 48.5 | 28.7 | > 100 | 21.2 | 59 | 8.16 | 66.4 | 26.6 | 94.3 | 40.9 | > 100 | 4.93 | 38.9
COc1cc(OC)c2c(c1)OC(c1ccccc1)CC2=O (stereo not given) |  | > 10 |  | > 10 |  | > 10 |  | > 10 |  | > 10 |  | > 10 |  | > 10 |  | > 10 |  | > 10 |  | > 10
